Data reported in US20030072824A1, “Ume extract having medicinal effects and compositions containing the same” (priority 1998, published 2003).

Experiment: Anti-oxidation action, DPPH radical trapping (Example 2)
Settings: absorbance at 517 nm reduced to half, 30 minutes
Description: An ethanol solution of a stable radical 1,1-diphenyl-2-picryl-hydrazyl (DPPH) has an absorption at 517 nm in blue. When a radical trapping substance is added to this solution, the solution is discolored depending on the amount of the trapping substance added. This phenomenon was utilized in this method. First, 1 ml of ethanol, 1 ml of an ethanol solution of the extract (concentration: 0 to 100 μg/ml), 2 ml of 0.2 M acetic acid buffer solution (pH 5.5) and 1 ml of DPPH solution (2.0×10^−7 mol/ml ethanol solution) were mixed, and the mixture was allowed to stand for 30 minutes. Then, the absorbance of this mixed solution was determined at 517 nm. On the other hand, a mixture solution substituting 1 ml of ethanol for the DPPH solution was used as a blank, and the absorbance of this mixture solution was determined at 517 nm in the same manner as the above. Then, the amount of the extract required to reduce the absorbance to half was calculated, and this was used as an indicator of anti-oxidation. As comparative examples, α-tocopherol and green tea were used in place of the extract, and the anti-oxidation power thereof was investigated.

## Cc1c(C)c2c(c(C)c1O)CC[C@@](C)(CCC[C@H](C)CCC[C@H](C)CCCC(C)C)O2 [α-tocopherol]
  Anti-oxidation power: the amount required to trap 1.0 × 10^−7 mol DPPH: 21 μg
